pIC50: −log10 of the molar value.
Target: IRAK4 (Homo sapiens (Human), UniProt Q9NWZ3)
Assay: Determination of IRAK4 kinase activity (IMAP fluorescence polarization, phosphorylation of fluorescent peptide substrate)
Type: biochemical
Details: 0.5 nM GST tagged IRAK4, 100 nM peptide substrate RP7030, 100 μM ATP, 30 minutes at 25° C.
Outline: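 GST-tagged IRAK4 (0.5 nM) phosphorylated 100 nM fluorescent peptide substrate with 100 µM ATP in Tris-HCl pH 7.2, 1 mM MgCl2, 1 mM DTT, 0.01% Tween 20 for 30 min at 25 °C. Phosphorylation read by IMAP nanoparticle binding as fluorescence polarization increase.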

Sequence of IRAK4 (Q9NWZ3 whole entry): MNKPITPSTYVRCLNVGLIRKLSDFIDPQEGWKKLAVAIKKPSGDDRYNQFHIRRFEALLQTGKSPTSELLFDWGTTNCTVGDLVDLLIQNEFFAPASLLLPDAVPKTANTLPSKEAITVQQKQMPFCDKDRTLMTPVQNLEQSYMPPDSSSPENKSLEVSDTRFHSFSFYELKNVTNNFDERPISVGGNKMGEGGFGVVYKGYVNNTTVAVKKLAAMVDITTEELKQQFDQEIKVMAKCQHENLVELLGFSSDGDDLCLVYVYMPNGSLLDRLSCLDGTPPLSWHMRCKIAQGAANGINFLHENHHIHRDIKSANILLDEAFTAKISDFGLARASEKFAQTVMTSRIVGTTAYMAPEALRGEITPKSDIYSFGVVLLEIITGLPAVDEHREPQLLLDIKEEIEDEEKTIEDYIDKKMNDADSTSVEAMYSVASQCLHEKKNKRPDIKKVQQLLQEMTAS

| pIC50 | Compound |
| --- | --- |
| 6.59 | OC[C@H]1C[C@@H](Nc2nc(Nc3ccncc3)ncc2-c2nccs2)[C@H](O)[C@@H]1O [Example 65, 6-(((1R,2S,3R,4R)-2,3-dihydroxy-4-(hydroxymethyl)cyclopentyl)amino)-2-(pyridin-4-ylamino)-5-(thiazol-2-yl)pyrimidine] |
| 8.40 | CN(C)c1ccc(Nc2ncc(-c3nc4cnccc4s3)c(N[C@@H]3C[C@H](CO)[C@@H](O)[C@H]3O)n2)cc1 [Example 66, (1R,2S,3R,5R)-3-((2-((4-(dimethylamino)phenyl)amino)-5-(thiazolo[4,5-c]pyridin-2-yl)pyrimidin-4-yl)amino)-5-(hydroxymethyl)cyclopentane-1,2-diol] |
| 8.52 | Cc1cc(Nc2ncc(-c3nc4cnccc4s3)c(N[C@@H]3C[C@H](CO)[C@@H](O)[C@H]3O)n2)ccn1 [Example 69, (1S,2R,3R,5R)-3-(hydroxymethyl)-5-((2-((2-methylpyridin-4-yl)amino)-5-(thiazolo[4,5-c]pyridin-2-yl)pyrimidin-4-yl)amino)cyclopentane-1,2-diol] |
| 7.92 | CN(C)c1cccc(Nc2ncc(-c3nc4cnccc4s3)c(N[C@@H]3C[C@H](CO)[C@@H](O)[C@H]3O)n2)c1 [Example 73, 6-(((1R,2S,3R,4R)-2,3-dihydroxy-4-(hydroxymethyl)cyclopentyl)amino)-2-((3-(dimethylamino)phenyl)amino)-5-(thiazolo[4,5-c]pyridin-2-yl)pyrimidine] |
| 8.22 | OC[C@H]1C[C@@H](Nc2nc(Nc3cncnc3)ncc2-c2nc3ccncc3s2)[C@H](O)[C@@H]1O [Example 74, 6-(((1R,2S,3R,4R)-2,3-dihydroxy-4-(hydroxymethyl)cyclopentyl)amino)-2-(pyrimidin-5-ylamino)-5-(thiazolo[5,4-c]pyridin-2-yl)pyrimidine] |
| 8.10 | Cc1cc(Nc2ncc(-c3nc4ccncc4s3)c(N[C@@H]3C[C@H](CO)[C@@H](O)[C@H]3O)n2)ccn1 [Example 77, 6-(((1R,2S,3R,4R)-2,3-dihydroxy-4-(hydroxymethyl)cyclopentyl)amino)-2-((2-methylpyridin-4-yl)amino)-5-(thiazolo[5,4-c]pyridin-2-yl)pyrimidine] |
| 7.89 | OC[C@H]1C[C@@H](Nc2nc(Nc3cccnc3)ncc2-c2nc3ccncc3s2)[C@H](O)[C@@H]1O [Example 78, 6-(((1R,2S,3R,4R)-2,3-dihydroxy-4-(hydroxymethyl)cyclopentyl)amino)-2-(pyridin-3-ylamino)-5-(thiazolo[5,4-c]pyridin-2-yl)pyrimidine] |
| 8.10 | Cc1cc(Nc2ncc(-c3nc(-c4ccccc4)cs3)c(N[C@@H]3C[C@H](CO)[C@@H](O)[C@H]3O)n2)ccn1 [Example 79, 6-(((1R,2S,3R,4R)-2,3-dihydroxy-4-(hydroxymethyl)cyclopentyl)amino)-2-((2-methylpyridin-4-yl)amino)-5-(4-phenylthiazol-2-yl)pyrimidine] |
| 7.01 | COc1cc(Nc2ncc(-c3nc(-c4ccccc4)cs3)c(N[C@@H]3C[C@H](CO)[C@@H](O)[C@H]3O)n2)ccn1 [Example 80, 6-(((1R,2S,3R,4R)-2,3-dihydroxy-4-(hydroxymethyl)cyclopentyl)amino)-2-((2-methoxypyridin-4-yl)amino)-5-(4-phenylthiazol-2-yl)pyrimidine] |
| 7.03 | OC[C@H]1C[C@@H](Nc2nc(Nc3cncnc3)ncc2-c2nc(-c3ccccc3)cs2)[C@H](O)[C@@H]1O [Example 81, 6-(((1R,2S,3R,4R)-2,3-dihydroxy-4-(hydroxymethyl)cyclopentyl)amino)-5-(4-phenylthiazol-2-yl)-2-(pyrimidin-5-ylamino)pyrimidine] |
| 5.49 | OC[C@H]1C[C@@H](Nc2nc(Nc3cccnc3)ncc2-c2nc(-c3ccccc3)cs2)[C@H](O)[C@@H]1O [Example 82, 6-(((1R,2S,3R,4R)-2,3-dihydroxy-4-(hydroxymethyl)cyclopentyl)amino)-5-(4-phenyithiazol-2-yl)-2-(pyridin-3-ylamino)pyrimidine] |

The remaining lines, values behind:

| Compound | pIC50 |
| --- | --- |
| Cc1cc(Nc2ncc(-c3ccc4ccccc4n3)c(N[C@@H]3C[C@H](CO)[C@@H](O)[C@H]3O)n2)cc(C)n1 [Example 59, 6-(((1R,2S,3R,4R)-2,3-dihydroxy-4-(hydroxymethyl)cyclopentyl)amino)-2-((2,6-dimethylpyridin-4-yl)amino)-5-(quinolin-2-yl)pyrimidine] | 9.00 |
| OC[C@H]1C[C@@H](Nc2nc(NC3CC3)ncc2-c2ccc3ccccc3n2)[C@H](O)[C@@H]1O [Example 60, 2-(cyclopropylamino)-6-(((1R,2S,3R,4R)-2,3-dihydroxy-4-(hydroxymethyl)cyclopentyl)amino)-5-(quinolin-2-yl)pyrimidine] | 5.83 |
| CC(C)Oc1cc(Nc2ncc(-c3ccc4ccccc4n3)c(N[C@@H]3C[C@H](CO)[C@@H](O)[C@H]3O)n2)ccn1 [Example 61, 6-(((1R,2S,3R,4R)-2,3-dihydroxy-4-(hydroxymethyl)cyclopentyl)amino)-2-((2-isopropoxypyridin-4-yl)amino)-5-(quinolin-2-yl)pyrimidine] | 7.57 |
| CC(C)n1ccc(Nc2ncc(-c3ccc4ccccc4n3)c(N[C@@H]3C[C@H](CO)[C@@H](O)[C@H]3O)n2)cc1=O [Example 62, 6-(((1R,2S,3R,4R)-2,3-dihydroxy-4-(hydroxymethyl)cyclopentyl)amino)-2-((1-isopropyl-2-oxo-1,2-dihydropyridin-4-yl)amino)-5-(quinolin-2-yl)pyrimidine] | 6.81 |
| OC[C@H]1C[C@@H](Nc2nc(Nc3ccnc(OC4CC4)c3)ncc2-c2ccc3ccccc3n2)[C@H](O)[C@@H]1O [Example 63, 2-((2-cyclopropoxypyridin-4-yl)amino)-6-(((1R,2S,3R,4R)-2,3-dihydroxy-4-(hydroxymethyl)cyclopentyl)amino)-5-(quinolin-2-yl)pyrimidine] | 7.37 |
| Nc1ncc(-c2nccs2)c(N[C@@H]2C[C@H](CO)[C@@H](O)[C@H]2O)n1 [Example 64, 2-amino-6-(((1R,2S,3R,4R)-2,3-dihydroxy-4-(hydroxymethyl)cyclopentyl)amino)-5-(thiazol-2-yl)pyrimidine] | 6.62 |
| Cc1cc(Nc2ncc(-c3nc4cnccc4s3)c(N[C@@H]3C[C@H](CO)[C@@H](O)[C@H]3O)n2)cc(C)n1 [Example 67, (1R,2S,3R,5R)-3-((2-((2,6-dimethylpyridin-4-yl)amino)-5-(thiazolo[4,5-c]pyridin-2-yl)pyrimidin-4-yl)amino)-5-(hydroxymethyl)cyclopentane-1,2-diol] | 9.30 |
| Cc1cc(Nc2ncc(-c3nc4ccncc4s3)c(N[C@@H]3C[C@H](CO)[C@@H](O)[C@H]3O)n2)cc(C)n1 [Example 68, (1R,2S,3R,5R)-3-((2-((2,6-dimethylpyridin-4-yl)amino)-5-(thiazolo[5,4-c]pyridin-2-yl)pyrimidin-4-yl)amino)-5-(hydroxymethyl)cyclopentane-1,2-diol] | 9.70 |
| COc1cc(Nc2ncc(-c3nc4cnccc4s3)c(N[C@@H]3C[C@H](CO)[C@@H](O)[C@H]3O)n2)ccn1 [Example 71, 6-(((1R,2S,3R,4R)-2,3-dihydroxy-4-(hydroxymethyl)cyclopentyl)amino)-2-((2-methoxypyridin-4-yl)amino)-5-(thiazolo[4,5-c]pyridin-2-yl)pyrimidine] | 8.15 |
| COc1cc(Nc2ncc(-c3nc4ccncc4s3)c(N[C@@H]3C[C@H](CO)[C@@H](O)[C@H]3O)n2)ccn1 [Example 75, 6-(((1R,2S,3R,4R)-2,3-dihydroxy-4-(hydroxymethyl)cyclopentyl)amino)-2-((2-methoxypyridin-4-yl)amino)-5-(thiazolo[5,4-c]pyridin-2-yl)pyrimidine] | 8.70 |
| OC[C@H]1C[C@@H](Nc2nc(NC3CCC3)ncc2-c2nc3cnccc3s2)[C@H](O)[C@@H]1O [Example 76, 2-(cyclobutylamino)-6-(((1R,2S,3R,4R)-2,3-dihydroxy-4-(hydroxymethyl)cyclopentyl)amino)-5-(thiazolo[4,5-c]pyridin-2-yl)pyrimidine] | 6.25 |
| Nc1ncc(-c2nc3cccnc3s2)c(N[C@@H]2C[C@H](CO)[C@@H](O)[C@H]2O)n1 [Example 83, (1R,2S,3R,5R)-3-((2-amino-5-(thiazolo[5,4-b]pyridin-2-yl)pyrimidin-4-yl)amino)-5-(hydroxymethyl)cyclopentane-1,2-diol] | 8.99 |
| Cc1nc(Nc2ccnc(F)c2)nc(N[C@@H]2C[C@H](CO)[C@@H](O)[C@H]2O)c1-c1nc2ccccc2s1 [Example 86, (1R,2S,3R,5R)-3-((5-(benzo[d]thiazol-2-yl)-2-((2-fluoropyridin-4-yl)amino)-6-methylpyrimidin-4-yl)amino)-5-(hydroxymethyl)cyclopentane-1,2-diol] | 6.37 |
| Cc1cc(Nc2nc(C)c(-c3nc4ccccc4s3)c(N[C@@H]3C[C@H](CO)[C@@H](O)[C@H]3O)n2)cc(C)n1 [Example 87, (1R,2S,3R,5R)-3-((5-(benzo[d]thiazol-2-yl)-2-((2,6-dimethylpyridin-4-yl)amino)-6-methylpyrimidin-4-yl)amino)-5-(hydroxymethyl)cyclopentane-1,2-diol] | 6.92 |
| Cc1nc(Nc2ccc(Cl)cc2)nc(N[C@@H]2C[C@H](CO)[C@@H](O)[C@H]2O)c1-c1nc2ccccc2s1 [Example 88, (1R,2S,3R,5R)-3-((5-(benzo[d]thiazol-2-yl)-2-((4-chlorophenyl)amino)-6-methylpyrimidin-4-yl)amino)-5-(hydroxymethyl)cyclopentane-1,2-diol] | 5.20 |
| Cc1nc(NCCCN2CCN(C)CC2)nc(N[C@@H]2C[C@H](CO)[C@@H](O)[C@H]2O)c1-c1nc2ccccc2s1 [Example 89, (1R,2S,3R,5R)-3-((5-(benzo[d]thiazol-2-yl)-6-methyl-2-((3-(4-methylpiperazin-1-yl)propyl)amino)pyrimidin-4-yl)amino)-5-(hydroxymethyl)cyclopentane-1,2-diol] | 5.22 |
| Cc1nc(NC2CC2)nc(N[C@@H]2C[C@H](CO)[C@@H](O)[C@H]2O)c1-c1nc2ccccc2s1 [Example 90, (1R,2S,3R,5R)-3-((5-(benzo[d]thiazol-2-yl)-2-(cyclopropylamino)-6-methylpyrimidin-4-yl)amino)-5-(hydroxymethyl)cyclopentane-1,2-diol] | 5.30 |
